Assay results as given in patent US9029389B2 (Institut Pasteur Korea, priority 2011, dated 2015).

Legend:
Human 5-lipoxygenase = biological target: T1, Human 5-lipoxygenase (Homo sapiens, UniProt P09917); assay: Activity of compounds against 5-LO enzyme (LTB4 measurement and/or fluorescence method); assay type: biochemical; settings: for inhibition at 10 µM: 5-LO, single concentration of 10 uM in duplicate; for IC50: 6 or 11 point dose response in duplicate
T1 construct: purchased Cayman 60402; host or cells: insect cells
T1 sequence (P09917 1-674): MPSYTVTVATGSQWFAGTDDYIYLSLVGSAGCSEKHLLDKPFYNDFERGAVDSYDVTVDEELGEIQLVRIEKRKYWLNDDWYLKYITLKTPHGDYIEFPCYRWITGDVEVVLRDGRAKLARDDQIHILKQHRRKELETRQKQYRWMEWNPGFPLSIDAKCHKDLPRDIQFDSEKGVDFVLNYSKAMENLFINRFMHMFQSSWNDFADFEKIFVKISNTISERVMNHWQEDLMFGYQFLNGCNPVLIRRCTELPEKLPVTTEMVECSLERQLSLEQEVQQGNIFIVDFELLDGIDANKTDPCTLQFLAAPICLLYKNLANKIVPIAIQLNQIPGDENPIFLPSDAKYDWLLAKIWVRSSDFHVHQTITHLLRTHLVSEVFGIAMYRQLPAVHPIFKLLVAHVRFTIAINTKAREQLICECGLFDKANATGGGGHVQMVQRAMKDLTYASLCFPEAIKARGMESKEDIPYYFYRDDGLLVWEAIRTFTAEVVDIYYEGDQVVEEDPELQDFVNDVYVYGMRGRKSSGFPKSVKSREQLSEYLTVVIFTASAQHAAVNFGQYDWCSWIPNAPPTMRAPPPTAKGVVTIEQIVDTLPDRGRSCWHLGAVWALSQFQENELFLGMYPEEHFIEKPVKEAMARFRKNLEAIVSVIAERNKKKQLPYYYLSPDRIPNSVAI
Procedure, shortened: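 Two read-outs: LTB4 measured by EIA and/or LC/MS/MS with LTB4-d4 standard after 15 min RT compound preincubation with insect-cell 5-LO and a 5 min 37 °C reaction on 3 uM arachidonic acid (0.1 mM ATP, pH 7.4). The room-temperature fluorescence format used 20 uM H2DCFDA, 100 uM ATP, 3 uM arachidonic acid, 5 min; IC50 from 6/11-point curves.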

| melting point | inhibition at 10 µM (Human 5-lipoxygenase) [%] | IC50 (Human 5-lipoxygenase) [nM] | Structure (SMILES) |
| --- | --- | --- | --- |
| 146.4 to 146.9 °C | < 40 |  | CCc1nc2ccc(Cl)cn2c1-c1nc(Cc2ccc(OC(F)(F)F)cc2)no1 [compound 165, 5-(6-Chloro-2-ethylimidazo[1,2-a]pyridin-3-yl)-3-(4-(trifluoromethoxy)benzyl)-1,2,4-oxadiazole] |
| 201.1 to 201.8 °C | < 40 |  | CCc1nc2ccc(Cl)cn2c1C(=O)NCc1nc2ccc(Cl)cc2o1 [compound 369, 6-chloro-N-((6-chlorobenzo[d]oxazol-2-yl)methyl)-2-ethylimidazo[1,2-a]pyridine-3-carboxamide] |
| 133.4 °C | > 69 | < 1000 | CCc1nc2ccc(F)cn2c1C(=O)NCc1ccc(Oc2ccc(OC(F)(F)F)cc2)cc1 [compound 225, 2-Ethyl-6-fluoro-N-(4-(4-(trifluoromethoxy)phenoxy)benzyl)imidazo[1,2-a]pyridine-3-carboxamide] |
| 244 °C | < 40 |  | CCc1nc2cc(Cl)ccn2c1C(=O)NCc1ccc(N2CCC(C(N)=O)CC2)cc1 [compound 292, N-(4-(4-Carbamoylpiperidin-1-yl)benzyl)-7-chloro-2-ethylimidazo[1,2-a]pyridine-3-carboxamide] |
| 200.9 °C | > 69 | 1000 to 20000 | CCc1nc2ccc(F)cn2c1C(=O)NCc1ccc(N2CCN(c3ccc(F)cc3)CC2)cc1 [compound 228, 2-Ethyl-6-fluoro-N-(4-(4-(4-fluorophenyl)piperazin-1-yl)benzyl)imidazo[1,2-a]pyridine-3-carboxamide] |
| 176 to 177 °C | < 40 |  | CCc1nc2cnccn2c1C(=O)NCc1ccc(OC(F)(F)F)cc1 [compound 141, 2-Ethyl-N-(4-(trifluoromethoxy)benzyl)imidazo[1,2-a]pyrazine-3-carboxamide] |
| 166.3 °C | 40 to 69 |  | CCc1nc2cc(Cl)ccn2c1C(=O)NCc1ccc(N2CCC(F)(F)CC2)cc1 [compound 236, 7-Chloro-N-(4-(4,4-difluoropiperidin-1-yl)benzyl)-2-ethylimidazo[1,2-a]pyridine-3-carboxamide] |
| 204.8 °C | < 40 |  | CCc1nc2cc(N3CCN(C)CC3)ccn2c1C(=O)NCc1ccc(N2CCOCC2)cc1 [compound 254, 2-Ethyl-7-(4-methylpiperazin-1-yl)-N-(4-morpholinobenzyl)imidazo[1,2-a]pyridine-3-carboxamide] |
| 174.2 °C | < 40 |  | CCc1nc2cc(Cl)ccn2c1C(=O)NCc1ccc(N2CCC3CCCCC3C2)cc1 (stereo not shown) [compound 222, 7-Chloro-2-ethyl-N-(4-(octahydroisoquinolin-2(1H)-yl)benzyl)imidazo[1,2-a]pyridine-3-carboxamide] |
| 177 °C | 40 to 69 |  | CCc1nc2cc(Cl)ccn2c1C(=O)NCc1ccc(N2CCC(c3ccc(Cl)cc3)CC2)cc1 [compound 297, 7-Chloro-N-(4-(4-(4-chlorophenyl)piperidin-1-yl)benzyl)-2-ethylimidazo[1,2-a]pyridine-3-carboxamide] |
| > 167.9 °C (dec.) | < 40 |  | CCc1nc2ccc(F)cn2c1C(=O)NCc1ccc(N2CCC(c3ccc(OC(F)(F)F)cc3)CC2)cc1 [compound 372, 2-ethyl-6-fluoro-N-(4-(4-(4-(trifluoromethoxy)phenyl)piperidin-1-yl)benzyl)imidazo[1,2-a]pyridine-3-carboxamide] |
| 145 to 146 °C | 40 to 69 |  | CCc1nc2cc(Cl)ccn2c1C(=O)NCC1CCN(Cc2ccc(OC(F)(F)F)cc2)CC1 [compound 140, 7-Chloro-2-ethyl-N-((1-(4-(trifluoromethoxy)benzyl)piperidin-4-yl)methyl)imidazo[1,2-a]pyridine-3-carboxamide] |
| 207.6 °C | < 40 |  | CCc1nc2ccc(C(F)(F)F)cn2c1C(=O)NCc1ccc(N2CCOCC2)cc1 [compound 273, 2-Ethyl-N-(4-morpholinobenzyl)-6-(trifluoromethyl)imidazo[1,2-a]pyridine-3-carboxamide] |
| 141.7 °C | < 40 |  | CCc1nc2ccc(Cl)cn2c1C(=O)NCc1ccc(N2CCC3CCCCC3C2)cc1 (stereo not shown) [compound 221, 6-Chloro-2-ethyl-N-(4-(octahydroisoquinolin-2(1H)-yl)benzyl)imidazo[1,2-a]pyridine-3-carboxamide] |
| 171 to 172 °C | 40 to 69 |  | CCc1nc2ccc(Cl)cn2c1C(=O)NCC1CCN(Cc2ccc(OC(F)(F)F)cc2)CC1 [compound 138, 6-Chloro-2-ethyl-N-((1-(4-(trifluoromethoxy)benzyl)piperidin-4-yl)methyl)imidazo[1,2-a]pyridine-3-carboxamide] |
|  | < 40 |  | CCc1nc2cc(C)ccn2c1C(=O)NCc1ccc(OC(F)(F)F)cc1 [compound 280, 2-Ethyl-7-methyl-N-(4-(trifluoromethoxy)benzyl)imidazo[1,2-a]pyridine-3-carboxamide] |
|  | > 69 | 1000 to 20000 | CCc1nc2ccc(Cl)cn2c1C(=O)NCc1ccc(Nc2ccc(OC(F)(F)F)cc2)cc1 [compound 174, 6-Chloro-2-ethyl-N-(4-(4-(trifluoromethoxy)phenylamino)benzyl)imidazo[1,2-a]pyridine-3-carboxamide] |
|  | < 40 |  | CCc1nc2c(OC)cccn2c1C(=O)NCc1ccc(N2CCOCC2)cc1 [compound 262, 2-Ethyl-8-methoxy-N-(4-morpholinobenzyl)imidazo[1,2-a]pyridine-3-carboxamide] |
|  | < 40 |  | CCc1nc2ccc(Cl)cn2c1C(=O)NCc1ccc(N2CCC(C(=O)Cc3ccc(F)cc3)CC2)cc1 [compound 325, 6-chloro-2-ethyl-N-(4-(4-(2-(4-fluorophenyl)acetyl)piperidin-1-yl)benzyl)imidazo[1,2-a]pyridine-3-carboxamide] |
|  | 40 to 69 |  | CCc1nc2ccc(Cl)cn2c1CNCc1ccc(N2CCC(OCc3ccccc3)CC2)cc1 [compound 341, N-(4-(4-(benzyloxy)piperidin-1-yl)benzyl)-1-(6-chloro-2-ethylimidazo[1,2-a]pyridin-3-yl)methanamine] |
|  | < 40 |  | CCc1nc2ccc(Cl)cn2c1C(=O)N1CCC(OCc2ccc(C)cc2)CC1 [compound 331, (6-chloro-2-ethylimidazo[1,2-a]pyridin-3-yl)(4-((4-methylbenzyl)oxy)piperidin-1-yl)methanone] |
|  | < 40 |  | CCc1nc2ccc(Cl)cn2c1C(=O)NCc1ccc(N2CCCCC2C)cc1 (stereo not shown) [compound 251, 6-chloro-2-ethyl-N-(4-(2-methylpiperidin-1-yl)benzyl)imidazo[1,2-a]pyridine-3-carboxamide] |
|  | < 40 |  | CCc1nc2cc(Cl)ccn2c1C(=O)NCc1ccc(-n2cccc2)cc1 [compound 117, N-(4-(1H-Pyrrol-1-yl)benzyl)-7-chloro-2-ethylimidazo[1,2-a]pyridine-3-carboxamide] |
|  | > 69 | < 1000 | CCc1nc2ccc(C)cn2c1C(=O)NCc1ccc(Oc2ccc(OC(F)(F)F)cc2)cc1 [compound 232, 2-Ethyl-6-methyl-N-(4-(4-(trifluoromethoxy)phenoxy)benzyl)imidazo[1,2-a]pyridine-3-carboxamide] |
